The numbers were not newly measured in patent publication US9579356B2, “Dietary supplements for reducing cholesterol levels” (RELIV INTERNATIONAL INC., priority 2006, dated 2017), which cites them from elsewhere.

Series [1] concerns individuals having total cholesterol levels ranging from 210 to 326 mg/dL. The conditions noted are these: 3.5 g daily, after two weeks.
In series [2] the test system is individuals having initial total cholesterol levels exceeding 260 mg/dL. Particulars: 15 grams daily, three weeks.
In series [3] the test system is rats which were fed a high cholesterol diet.
Series [4] deals with patients with LDL-cholesterol levels exceeding 160 mg/dl. The conditions noted are these: after eight weeks; policosanol 10 mg/day, lovastatin 20 mg/day, simvastatin 10 mg/day.
The next series deals with rats. The conditions noted are these: dietary supplementation.

beta-glucan: the “reduction in total cholesterol” value in series [1] was 5.4%. For the same compound, in series [2], the “reduced LDL cholesterol” value was “about 23%” and the reduced total cholesterol result is recorded as “about 19%”.

With `Oc1ccc(C=Cc2cc(O)cc(O)c2)cc1` [Resveratrol], in the series with human neutrophils, the leukotriene production entry is listed as “induce”. Besides, in series [3], the “cholesterol and triglyceride liver deposition” value is on record as “inhibited”; the “low-density lipoprotein (LDL) cholesterol levels” value is given as “lowered”; the “ratio of total cholesterol to high-density lipoprotein (HDL) cholesterol” value is given as “reduced”; the serum triglyceride levels entry is “lowered”.

As for `CC[C@H](C)C(=O)O[C@H]1C[C@@H](C)C=C2C=C[C@H](C)[C@H](CC[C@@H]3C[C@@H](O)CC(=O)O3)[C@H]21` [lovastatin], in series [4], the “reduced LDL-cholesterol levels” value is recorded as “about 22%”.

Regarding `O=C(O)[C@@H](O)[C@@H](O)[C@H](O)[C@@H](O)C(=O)[O-].[K+]` [potassium hydrogen D-glucarate], in the series on rats, the “lowering VLDL cholesterol” value is “effective” and the lowering total triglycerides result is on record as “effective”.

With `O=C([O-])[C@@H](O)[C@@H](O)[C@H](O)[C@@H](O)C(=O)[O-].[Ca+2]` [calcium D-glucarate], in the series with rats, the “lowering VLDL cholesterol” value is on record as “did not demonstrate similar effects” and the lowering total triglycerides result is “did not demonstrate similar effects”.
